Laboratory results taken from patent publication US9943614B2, “Cationic steroid antimicrobial diagnostic, detection, screening and imaging methods” (BRIGHAM YOUNG UNIVERSITY, priority 2008, dated 2018).

Legend:
[1] = system: HIV; settings: cited from earlier work
[2] = system: bacteria; settings: cited from earlier work
[3] = system: S. aureus ATCC 25923; assay: In vitro binding of 99mTc-labelled agents to viable S. aureus bacteria; design: species or system Staphylococcus aureus; settings: 10 μg concentration, time not stated

Compound	HIV infection of primary human CD4+ T cells [1]	in-vitro binding in published reports [2] [%]	In vitro binding to bacteria [3] [%]
CCCCCCCCNCCC[C@@H](C)[C@H]1CC[C@H]2[C@@H]3[C@H](OCCCN)C[C@@H]4C[C@H](OCCCN)CC[C@]4(C)[C@H]3C[C@H](OCCCN)[C@]12C [CSA-13]	inhibit HIV infection	–	–
O=C([O-])CN(CCN(CC(=O)[O-])CC(=O)[O-])CCN(CC(=O)[O-])CC(=O)[O-].[99Tc+4] [Compound 99mTc-DTPA]	–	> 8	~10
